Experimental data taken from the NIST ThermoML archive (doi:10.1021/je100788g).
Numbers after ± are expanded uncertainties.

Columns and labels:
[1] = Vibrating tube method
[2] = refractive index (Na D-line) (dimensionless); conditions: 298.15 K; 101.33 kPa; Liquid; Standard Abbe refractometry
[3] = xn = mol fraction of the nth substance listed; conditions: 313.15 K, Fluid (supercritical or subcritical phases), Vibrating tube method

For `CCCCO` [butan-1-ol], the mass density ([1]; 298.15 K, 101.33 kPa, Liquid) was 805.8 ± 0.2 kg/m3, the mass density ([1]; 313.15 K, 1000 kPa, Liquid) was 794.9 ± 0.2 kg/m3 and the mass density ([1]; 313.15 K, 2000 kPa, Liquid) was 795.6 ± 0.2 kg/m3. The mass density ([1]; 313.15 K, 3000 kPa, Liquid) was 796.3 ± 0.2 kg/m3, the mass density ([1]; 313.15 K, 4000 kPa, Liquid) was 797 ± 0.2 kg/m3 and the mass density ([1]; 313.15 K, 5000 kPa, Liquid) was 797.6 ± 0.2 kg/m3. For the same compound, the mass density ([1]; 313.15 K, 6000 kPa, Liquid) was 798.3 ± 0.3 kg/m3, the mass density ([1]; 313.15 K, 7000 kPa, Liquid) was 798.9 ± 0.3 kg/m3 and the mass density ([1]; 313.15 K, 8000 kPa, Liquid) was 799.6 ± 0.3 kg/m3. For the same compound, the mass density ([1]; 313.15 K, 9000 kPa, Liquid) was 800.2 ± 0.3 kg/m3, the mass density ([1]; 313.15 K, 10000 kPa, Liquid) was 800.9 ± 0.3 kg/m3 and the refractive index [2] was 1.3973 ± 0.0028.
For `CCCCO` [butan-1-ol] + O=C=O, the mass density ([3]; 1000 kPa, x2 = 0) was 794.9 ± 0.2 kg/m3, the mass density ([3]; 2000 kPa, x2 = 0) was 795.6 ± 0.2 kg/m3 and the mass density ([3]; 2000 kPa, x2 = 0.103) was 802.2 ± 0.3 kg/m3. The mass density ([3]; 3000 kPa, x2 = 0) was 796.3 ± 0.2 kg/m3, the mass density ([3]; 3000 kPa, x2 = 0.103) was 803 ± 0.3 kg/m3 and the mass density ([3]; 4000 kPa, x2 = 0) was 797 ± 0.2 kg/m3. It also gave a mass density ([3]; 4000 kPa, x2 = 0.103) of 803.8 ± 0.3 kg/m3, a mass density ([3]; 4000 kPa, x2 = 0.204) of 810.6 ± 0.3 kg/m3 and a mass density ([3]; 5000 kPa, x2 = 0) of 797.6 ± 0.2 kg/m3. For the same compound, the mass density ([3]; 5000 kPa, x2 = 0.103) was 804.6 ± 0.3 kg/m3, the mass density ([3]; 5000 kPa, x2 = 0.204) was 811.6 ± 0.3 kg/m3 and the mass density ([3]; 5000 kPa, x2 = 0.3) was 817 ± 0.3 kg/m3. The mass density ([3]; 6000 kPa, x2 = 0) was 798.3 ± 0.3 kg/m3, the mass density ([3]; 6000 kPa, x2 = 0.103) was 805.4 ± 0.3 kg/m3 and the mass density ([3]; 6000 kPa, x2 = 0.204) was 812.4 ± 0.3 kg/m3. It also gave a mass density ([3]; 6000 kPa, x2 = 0.3) of 818.1 ± 0.3 kg/m3, a mass density ([3]; 7000 kPa, x2 = 0) of 798.9 ± 0.3 kg/m3 and a mass density ([3]; 7000 kPa, x2 = 0.103) of 806.2 ± 0.3 kg/m3. It also gave a mass density ([3]; 7000 kPa, x2 = 0.204) of 813.4 ± 0.3 kg/m3, a mass density ([3]; 7000 kPa, x2 = 0.3) of 819.1 ± 0.3 kg/m3 and a mass density ([3]; 7000 kPa, x2 = 0.404) of 825.1 ± 0.3 kg/m3. The mass density ([3]; 7000 kPa, x2 = 0.503) was 829.1 ± 0.3 kg/m3, the mass density ([3]; 8000 kPa, x2 = 0) was 799.6 ± 0.3 kg/m3 and the mass density ([3]; 8000 kPa, x2 = 0.103) was 806.9 ± 0.3 kg/m3. The mass density ([3]; 8000 kPa, x2 = 0.204) was 814.3 ± 0.3 kg/m3, the mass density ([3]; 8000 kPa, x2 = 0.3) was 820.2 ± 0.3 kg/m3 and the mass density ([3]; 8000 kPa, x2 = 0.404) was 826.5 ± 0.3 kg/m3. The mass density ([3]; 8000 kPa, x2 = 0.503) was 830.9 ± 0.3 kg/m3, the mass density ([3]; 8000 kPa, x2 = 0.6) was 830.9 ± 0.3 kg/m3 and the mass density ([3]; 8000 kPa, x2 = 0.703) was 824.9 ± 3 kg/m3. For the same compound, the mass density ([3]; 9000 kPa, x2 = 0) was 800.2 ± 0.3 kg/m3, the mass density ([3]; 9000 kPa, x2 = 0.103) was 807.7 ± 0.3 kg/m3 and the mass density ([3]; 9000 kPa, x2 = 0.204) was 815.2 ± 0.3 kg/m3. The mass density ([3]; 9000 kPa, x2 = 0.3) was 821.2 ± 0.3 kg/m3, the mass density ([3]; 9000 kPa, x2 = 0.404) was 827.8 ± 0.3 kg/m3 and the mass density ([3]; 9000 kPa, x2 = 0.503) was 832.6 ± 0.3 kg/m3. For the same compound, the mass density ([3]; 9000 kPa, x2 = 0.6) was 833.4 ± 0.3 kg/m3, the mass density ([3]; 9000 kPa, x2 = 0.703) was 829.1 ± 0.3 kg/m3 and the mass density ([3]; 9000 kPa, x2 = 0.802) was 810.5 ± 0.7 kg/m3. The mass density ([3]; 9000 kPa, x2 = 0.9) was 762.6 ± 1.4 kg/m3, the mass density ([3]; 9000 kPa, x2 = 0.95) was 704.5 ± 5.6 kg/m3 and the mass density ([3]; 10000 kPa, x2 = 0) was 800.9 ± 0.3 kg/m3. The mass density ([3]; 10000 kPa, x2 = 0.103) was 808.4 ± 0.3 kg/m3, the mass density ([3]; 10000 kPa, x2 = 0.204) was 816.1 ± 0.3 kg/m3 and the mass density ([3]; 10000 kPa, x2 = 0.3) was 822.3 ± 0.3 kg/m3. For the same compound, the mass density ([3]; 10000 kPa, x2 = 0.404) was 829.1 ± 0.3 kg/m3, the mass density ([3]; 10000 kPa, x2 = 0.503) was 834.3 ± 0.3 kg/m3 and the mass density ([3]; 10000 kPa, x2 = 0.6) was 835.8 ± 0.3 kg/m3. The mass density ([3]; 10000 kPa, x2 = 0.703) was 833.1 ± 0.3 kg/m3, the mass density ([3]; 10000 kPa, x2 = 0.802) was 817.8 ± 0.6 kg/m3 and the mass density ([3]; 10000 kPa, x2 = 0.9) was 779.1 ± 1.1 kg/m3. It also gave a mass density ([3]; 10000 kPa, x2 = 0.95) of 735.5 ± 3 kg/m3.
`O=C=O` [carbon dioxide] gave a mass density ([1]; 313.15 K, 1000 kPa, Fluid (supercritical or subcritical phases)) of 17.9 ± 0.2 kg/m3, a mass density ([1]; 313.15 K, 2000 kPa, Fluid (supercritical or subcritical phases)) of 37.1 ± 0.2 kg/m3 and a mass density ([1]; 313.15 K, 3000 kPa, Fluid (supercritical or subcritical phases)) of 58.7 ± 0.2 kg/m3. For the same compound, the mass density ([1]; 313.15 K, 4000 kPa, Fluid (supercritical or subcritical phases)) was 83.5 ± 0.2 kg/m3, the mass density ([1]; 313.15 K, 5000 kPa, Fluid (supercritical or subcritical phases)) was 112.7 ± 0.2 kg/m3 and the mass density ([1]; 313.15 K, 6000 kPa, Fluid (supercritical or subcritical phases)) was 148.8 ± 0.3 kg/m3. The mass density ([1]; 313.15 K, 7000 kPa, Fluid (supercritical or subcritical phases)) was 197.3 ± 0.3 kg/m3, the mass density ([1]; 313.15 K, 8000 kPa, Fluid (supercritical or subcritical phases)) was 276.7 ± 0.4 kg/m3 and the mass density ([1]; 313.15 K, 9000 kPa, Fluid (supercritical or subcritical phases)) was 483.4 ± 0.5 kg/m3. The mass density ([1]; 313.15 K, 10000 kPa, Fluid (supercritical or subcritical phases)) was 627.4 ± 0.5 kg/m3.
With `O=C=O` [carbon dioxide] + CCCCO the mass density ([3]; 1000 kPa, x1 = 1) was 17.9 ± 0.2 kg/m3, the mass density ([3]; 2000 kPa, x1 = 1) was 37.1 ± 0.2 kg/m3 and the mass density ([3]; 3000 kPa, x1 = 1) was 58.7 ± 0.2 kg/m3. It also gave a mass density ([3]; 4000 kPa, x1 = 1) of 83.5 ± 0.2 kg/m3, a mass density ([3]; 5000 kPa, x1 = 1) of 112.7 ± 0.2 kg/m3 and a mass density ([3]; 6000 kPa, x1 = 1) of 148.8 ± 0.3 kg/m3. For the same compound, the mass density ([3]; 7000 kPa, x1 = 1) was 197.3 ± 0.3 kg/m3, the mass density ([3]; 8000 kPa, x1 = 1) was 276.7 ± 0.4 kg/m3 and the mass density ([3]; 9000 kPa, x1 = 1) was 483.4 ± 0.5 kg/m3. For the same compound, the mass density ([3]; 10000 kPa, x1 = 1) was 627.4 ± 0.5 kg/m3.
